Test results as given in article PMC4914680 (Antimicrobial Agents and Chemotherapy, 2016).
Where two headings read alike, the source gives them in different places.

Assays:
HIV-1 SF-2 = test: Multiple-cycle assay, laboratory strains; type: cell-based; conditions: Human immunodeficiency virus 1; SF-2, CXCR4, MT-2
HIV-1 MN = test: Multiple-cycle assay, laboratory strains; type: cell-based; conditions: Human immunodeficiency virus 1, CXCR4, MT-2
HIV-2 ROD = test: Multiple-cycle assay, laboratory strains; type: cell-based; conditions: Human immunodeficiency virus 2, MT-2
HIV-2 CBL-20 = test: Multiple-cycle assay, laboratory strains; type: cell-based; conditions: HIV-2 CBL-20, MT-2
[1] = tested on: V370M virus (recombinant virus with gag/pr genes from a clinical isolate); test: microbe, parasite or virus in culture; type: cell-based, HIV-1; conditions: Human immunodeficiency virus 1, MT2, read-out: EC50 (SD)
[2] = target: HIV-1 reverse transcriptase (Human immunodeficiency virus type 1 group M subtype B, UniProt P03366); test: In vitro HIV-1 reverse transcriptase assay; type: biochemical
[3] = tested on: HIV-1 subtype B clinical isolates; test: Drug susceptibility assay using clinical isolates in PBMCs
[4] = tested on: HIV-1 subtype A clinical isolates; test: as above; conditions: Human immunodeficiency virus 1, PBMC
[5] = tested on: HIV-1 subtype CRF01_AE clinical isolates; test: as above; conditions: Human immunodeficiency virus 1, PBMC
[6] = tested on: HIV-1 subtype G clinical isolates; test: as above; conditions: Human immunodeficiency virus 1, PBMC
[7] = tested on: HIV-1 subtype F clinical isolate; test: as above; conditions: Human immunodeficiency virus 1, PBMC

## C=C(C)[C@@H]1CC[C@]2(NCCN3CCS(=O)(=O)CC3)CC[C@]3(C)[C@H](CC[C@@H]4[C@@]5(C)CC=C(c6ccc(C(=O)O)cc6)C(C)(C)[C@@H]5CC[C@]43C)[C@@H]12 [BMS-955176]
HIV-1 SF-2
  EC50: 11 ± 1.5 nM
HIV-1 MN
  EC50: 0.9 ± 0.6 nM
HIV-2 ROD
  EC50: 15 ± 1.2 nM
HIV-2 CBL-20
  EC50: completely resistant
HIV-2 CBL-20; Human immunodeficiency virus 2, read-out: EC50
  EC50: > 1200 nM
[1]
  EC50: 10 nM
[2]
  IC50: > 50 µM
[3]; Human immunodeficiency virus 1, PBMC, read-out: Mean EC50 ± SD, PBMCs, B (96% of Gag diversity), 22 isolates
  EC50: 24 ± 24 nM
[3]; Human immunodeficiency virus 1, PBMC, read-out: Mean EC50 ± SD, PBMCs, B (all), 26 isolates
  EC50: 67 ± 172 nM
[3]; Human immunodeficiency virus 1, PBMC, read-out: Median EC50, PBMCs, B (96% of Gag diversity), 22 isolates
  EC50: 17 nM
[3]; Human immunodeficiency virus 1, PBMC, read-out: Median EC50, PBMCs, B (all), 26 isolates
  EC50: 21 nM
[3]; Human immunodeficiency virus 1, PBMC, read-out: Range EC50, PBMCs, B (96% of Gag diversity), 22 isolates
  EC50: 1 to 110 nM
[3]; Human immunodeficiency virus 1, PBMC, read-out: Range EC50, PBMCs, B (all), 26 isolates
  EC50: 1 to 858 nM
[3]; Human immunodeficiency virus 1, PBMC, read-out: mean EC50, PBMCs, three less susceptible subtype B variants with Gag V370A/ΔT371
  EC50: 123 ± 162 nM
[3]; PBMC
  EC50: 860 nM
[4]; PBMCs, one less sensitive subtype A isolate
  EC50: 280 nM
[4]; read-out: Mean EC50 ± SD, PBMCs, A, 13 of 14 isolates
  EC50: 26 ± 25 nM
[4]; read-out: Mean EC50 ± SD, PBMCs, A, 14 isolates
  EC50: 44 ± 72 nM
[4]; read-out: Median EC50, PBMCs, A, 13 of 14 isolates
  EC50: 20 nM
[4]; read-out: Median EC50, PBMCs, A, 14 isolates
  EC50: 21 nM
[4]; read-out: Range EC50, PBMCs, A, 13 of 14 isolates
  EC50: 5 to 87 nM
[4]; read-out: Range EC50, PBMCs, A, 14 isolates
  EC50: 5 to 280 nM
[4]; read-out: median EC50 values, Fig 7, PBMCs, A (Group M)
  EC50: 20000 nM
[5]; read-out: Mean EC50 ± SD, PBMCs, AE, 7 isolates
  EC50: 77 ± 46 nM
[5]; read-out: Range EC50, PBMCs, AE, 7 isolates
  EC50: 10 to 139 nM
[6]; read-out: Mean EC50 ± SD
  EC50: 11 ± 4 nM
[6]; read-out: Median EC50
  EC50: 10 nM
[6]; read-out: Range EC50
  EC50: 8 to 15 nM
[7]; read-out: Mean EC50
  EC50: 5.9 nM
[7]; read-out: Median EC50
  EC50: 6 nM
[7]; read-out: Range EC50
  EC50: 6 nM
